In patent publication US10385003B2, “Ophthalmic formulation” (priority 2011, dated 2019):
Entries after “also recorded” stand apart in the source; their conditions may differ. Like-named read-outs stand apart in the source and are kept apart here.

Columns and labels:
[1] = Π-A isocycles of human meibum films mixed with model lipids (Example 6, FIG. 5); format: physicochemical; conditions: for change of Πmax in subsequent isocycles: meibum 20 μg mixed with lipid, 20° C.; for Πmax in the first isocycle versus meibomian lipid films alone: meibum 20 μg mixed with −10 mol % lipid, spread at 20° C.
Experimental: (§1) Freshly synthesised (O-oleoyl)-ω-hydroxypalmitic acid (an example of a compound of formula (I)) was spread either alone or mixed with human meibum on a Langmuir trough on an artificial tear buffer. Pressure-area isocycle profiles were recorded and compared with those of palmityl oleate and oleic acid, alone or mixed with meibum. These measurements were accompanied by fluorescence microscopy of meibum mixed films during pressure-area isocycles.
Collection of meibomian lipids was in accordance with the Tenets of Helsinki. Human meibomian lipids were gently squeezed out of the meibomian glands of a single subject's lower eyelids by applying pressure to the eyelids using sterile cotton swabs on either side of the lid. Multiple collections were carried out and pooled to provide consistency in the experiments. The subject was devoid of any external signs or symptoms of ocular pathology including dry eye disease. The expressed lipids were harvested using a sterile stainless steel spatula and dissolved in chloroform. The meibomian lipids were dried through vacuum concentration and centrifugation, and then reconstituted in chloroform spiked with 0.5% (w/w) of the fluorophore, 1-palmitoyl-2-[12-[(7-nitro-2-1,3-benzoxadiazol-4-yl)amino]dodecanoyl]-sn-glycero-3-phosphatidylcholine] (NBD-DPPC) (Avanti Polar Lipids, Auspep Pty. Ltd (Tullamarine, Australia)) and stored at −20° C. until used.
The results were compared with mixtures with meibomian lipids. Human meibum (20 μg) was mixed with −10 mol % (O-oleoyl)-ω-hydroxypalmitic acid (2 μg) or with palmityl oleate (1.9 μg) or oleic acid (1.1 μg). These mixtures were spread at 20° C. and 5 isocycles carried out. The film was then heated to 35° C. for another 5 isocycles. The Π-A curves were compared with those for pure meibomian lipid films. In some cases, meibomian lipids doped with 0.5% (w/w) NBD-DPPC were used in order to view the films microscopically.
In general, meibomian films were very tolerant to the changes in their composition, indicated by the fact that the shapes of the different Π-A curves of mixed films were similar to those obtained from films of pure meibomian lipids (FIG. 5). […] Meibum containing fluorophore was spread on artificial tear buffer alone or pre-mixed with each of (O-oleoyl)-ω-hydroxypalmitic acid, palmityl oleate, or oleic acid were spread at 20° C. on the trough. After five isocycles, the trough was heated to 35° C. and five more isocycles were carried out. Then the trough was cooled back to 20° C. and again five more isocycles were run.

[2] = Surface pressure-area (Π-A) measurements of pure lipid films on a Langmuir-Blodgett minitrough (Example 5, FIG. 1); format: physicochemical; conditions: pure film at air-buffer interface, 20° C. and 34° C.
Experimental: (§2) The physico-chemical properties of certain wax esters, meibomian lipids, and compounds of formula (I) alone or mixed with human meibum were characterized on a Langmuir-Blodgett minitrough by means of surface pressure-area (Π-A) measurements.
(§3) A buffer (NaCl: 6.63 g/L, KCl: 1.72 g/L, NaHCO3: 1.38 g/L, CaCl2.2H2O: 0.15 g/L, NaH2PO4.H2O: 0.10 g/L and MOPS: 4.18 g/L dissolved in MilliQ water) was added to a double barrier minitrough (Nima Technology Ltd, UK; Working surface area 15 cm^2−80 cm^2). Purified preparations of wax esters in chloroform (1 mg/mL), meibomian lipids in chloroform (1 mg/mL), and compounds of formula (I) in chloroform (ranging from 1.4 μmol to 0.1 μmol) alone or mixed with human meibum at different ratios, were spread on the surface (air-buffer interface) of the buffer subphase. Dynamic Π-A profiles of films at the air-buffer interface of the Langmuir trough were collected using software supplied by NIMA Technology. Surface pressure was monitored using a paper plate connected to a Wilhelmy balance. Compression and expansion cycles were conducted over an area (A) of 79 cm^2−16 cm^2 at a barrier rate of 15 cm^2/min and at a temperature of 20° C. and 34° C.
This is indicated by the take-off moving to the left of the x-axis (indicating collapse), whereas the take-off for the compounds of formula (I) remains constant.

[3] = Π-A isocycles of equimolar pure lipid films on artificial tear buffer, Langmuir trough (Example 6, FIG. 4); format: physicochemical; conditions: for change of maximum surface pressure (Πmax) with increasing isocycles / change of Π-A profile / take-off through repeated isocycles: 7.5 nmol pure film; for change of maximum surface pressure (Πmax) with increasing isocycles / change of Π-A profile / take-off through repeated isocycles / surface activity of pure film: 35° C.; for surface area per molecule on take-off: pure film, estimated; for surface activity of pure film: 7.5 nmol film
Experimental: as §1
The surface characteristics of (O-oleoyl)-ω-hydroxypalmitic acid were compared with palmityl oleate (a structurally similar wax ester) and oleic acid (which is equivalent to the fatty acid (amphiphilic) component of (O-oleoyl)-ω-hydroxypalmitic acid).
Films were formed by spreading 7.5 nmol of the lipids dissolved in chloroform onto the cleaned surface (air-buffer interface) of an artificial tear buffer (NaCl: 6.63 g/L, KCl: 1.72 g/L, NaHCO3: 1.38 g/L, CaCl2.2H2O: 0.15 g/L, NaH2PO4×H2O: 0.10 g/L and MOPS: 4.18 g/L dissolved in ion exchange ultrapure water) in a double barrier 80 mL temperature-controlled (35° C.) Langmuir trough (Nima Technology Ltd, UK). After 5 isocycles were obtained, the temperature was lowered to 20° C. A Whilhelmy balance (Whatman No. 1 filter paper) was used to record surface pressure during isocycles (79 cm^2-16 cm^2 at 10 cm^2/min).

[4] = Fluorescence microscopy of meibum mixed films during pressure-area isocycles (Example 6, FIG. 6); format: physicochemical, human; conditions: NBD-DPPC doped meibum, 20° C.
Experimental: as §1
Collection of meibomian lipids was in accordance with the Tenets of Helsinki. Human meibomian lipids were gently squeezed out of the meibomian glands of a single subject's lower eyelids by applying pressure to the eyelids using sterile cotton swabs on either side of the lid. Multiple collections were carried out and pooled to provide consistency in the experiments. The subject was devoid of any external signs or symptoms of ocular pathology including dry eye disease. […]
Micrographs comparing the appearance of pure meibomian lipid films (Row A) with meibomian lipids mixed with the (O-oleoyl)-ω-hydroxypalmitic acid (Row B), palmityl oleate (Row C) or oleic acid (Row D) at 20° C. […] Although not quantitatively verified, the darker patches appeared to be more prevalent in the mixed films of palmityl oleate and oleic acid than for pure meibomian lipid films.

[5] = Π-A measurements of meibomian lipids from a patient with dry eye disease mixed with a compound of formula (I) (Example 5, FIG. 3); format: physicochemical, human; conditions: dry eye patient meibomian lipids with 3 μL compound
Experimental: as §3

[6] = Π-A and pressure/time measurements of meibomian lipid films mixed with compounds of formula (I) (Example 5, FIG. 2); format: physicochemical, human
Experimental: as §2, §3
Adding a small amount of a compound of formula (I) causes fast stabilisation of the film (indicated on the pressure/time curve with the mixture having little change between isocycles) and the maximum surface pressures are much higher.

[7] = meibomian lipids (20 μL) mixed with 3-5 μL compound, FIG. 2

CCCCCCCC/C=C\CCCCCCCC(=O)OCCCCCCCCCCCCCCCC [palmityl oleate, reference compound]
change of Πmax in subsequent isocycles [1]: marked increase | Πmax in the first isocycle versus meibomian lipid films alone [1]: did not influence | film collapse during compression/expansion cycles (take-off position) [2]: collapse | change of maximum surface pressure (Πmax) with increasing isocycles ([3]; FIG. 4): increase in maximum surface pressure | change of Π-A profile / take-off through repeated isocycles ([3]; FIG. 4): slow shift in the Π-A curve to the left | area per molecule at flattening of the Π-A curve ([3]; assuming the film is a monolayer up to this point, FIG. 4): about 60 Å^2 | surface area per molecule on take-off [3]: 82 Å^2 per molecule | microscopic appearance of meibomian film mixed with lipid [4]: did not appear substantially different from pure meibomian lipid films

CCCCCCCC/C=C\CCCCCCCC(=O)OCCCCCCCCCCCCCCCC(=O)O [(O-oleoyl)-16-hydroxypalmitic acid]
hysteresis of pressure/area curve [5]: increase in hysteresis | surface pressure of film [5]: increases the surface pressure | change of Πmax in subsequent isocycles [1]: small increase | Πmax in the first isocycle versus meibomian lipid films alone [1]: higher | stabilisation of meibomian lipid film [6, 7]: stabilise the films | film collapse during compression/expansion cycles (take-off position) [2]: do not collapse | surface activity of pure film ([3]; listed as (O-oleoyl)-w-hydroxypalmitic acid): as surface active as oleic acid films | surface activity of pure film ([3]; listed as (O-oleoyl)-ω-hydroxypalmitic acid): very surface active; also recorded: much more surface active | change of Π-A profile / take-off through repeated isocycles ([3]; FIG. 4): little change in its profile | surface area covered by pure film ([3]; compared with palmityl oleate or oleic acid): much larger surface area than either palmityl oleate or oleic acid | surface area per molecule on take-off [3]: 131 Å^2 per molecule

CCCCCCCC/C=C\CCCCCCCC(=O)O [oleic acid, reference compound]
change of Πmax in subsequent isocycles [1]: decreased | Πmax in the first isocycle versus meibomian lipid films alone [1]: higher | change of maximum surface pressure (Πmax) with increasing isocycles ([3]; FIG. 4): decreases | change of Π-A profile / take-off through repeated isocycles ([3]; FIG. 4): decreases in take-off | microscopic appearance of meibomian film mixed with lipid [4]: did not appear substantially different from pure meibomian lipid films

CCCCCCCCCCCCCCCCCC(=O)OCCCCCCCCCCCCCCCC [palmityl stearate wax ester, palmityl stearate]
film collapse during compression/expansion cycles (take-off position) [2]: collapse

CCCCCCCCCCCCCCCCCC(=O)OCCCCCCCCCCCCCCCC(=O)O [(O-stearyl)-16-hydroxypalmitic acid, (O)-stearyl-16-hydroxypalmitic acid]
stabilisation of meibomian lipid film [6]: stabilise the films | film collapse during compression/expansion cycles (take-off position) [2]: do not collapse

CCCCCCCC/C=C\CCCCCCCC(=O)OCCCCCCCCCC(=O)O [(O-oleoyl)-10-hydroxycaprinic acid, (O)-oleoyl-10-hydroxydecanoic acid]
stabilisation of meibomian lipid film [6, 7]: stabilise the films

CC/C=C\C/C=C\C/C=C\CCCCCCCC(=O)OCCCCCCCCCCCCCCCCCC [steroyl linolenate wax ester, steroyl linolenate]
film collapse during compression/expansion cycles (take-off position) [2]: collapse
